Measured values as given in ChEMBL document CHEMBL1133049, “Expeditious synthesis and cytotoxic activity of new cyanoindolo[3,2-c]quinolines and benzimidazo[1,2-c]quinazolines” (Bioorg Med Chem Lett, 2000).
Calls of active or inactive are those of the source. No cut-off for these calls is given here.

What was measured:
[1] = test system: HT-29; assay: Cytotoxicity of compound was evaluated on the HT-29 cell line; type: functional, cell-based; settings: Homo sapiens
[2] = test system: L1210; assay: Antiproliferative activity of compound was assessed using the murine L1210 leukemia cell line; type: functional, cell-based; settings: Mus musculus
[3] = test system: L1210; assay: Percent perturbations evaluated at 10 uM induced on L1210 cells in the G2+M phase of cell cycle; type: functional, Mus musculus
[4] = test system: L1210; assay: Percent perturbations evaluated at 10 uM induced on L1210 cells in the >G2+M (8N) phase of cell cycle; type: functional, Mus musculus
[5] = test system: L1210; assay: Percent perturbations evaluated at 10 uM induced on L1210 cells in the >G2+M (8N) phase of cell cycle; inactive; type: functional, cell-based; settings: Mus musculus

Compound	IC50 [2] [µM]	IC50 [1] [µM]	Perturbations [3] [%]	Perturbations [4] [%]	Perturbations [5]
CN(C)CCn1c2ccccc2c2c(C#N)nc3ccccc3c21	3.1	0.68	50	21	
c1ccc2c(c1)ncn1c3ccccc3nc21	> 100				
N#Cc1nc2ccccc2c2nc3ccccc3n12	5.4	5.2	61		inactive

Further lines, with some results ahead:

IC50 [2] [µM]	Compound	IC50 [1] [µM]	Perturbations [3] [%]	Perturbations [4] [%]	Perturbations [5]
> 100	N#Cc1[nH]c2ccccc2c2nc3ccccc3c1-2				
58.8	Cn1c2ccccc2c2c(C#N)nc3ccccc3c21				
